Reference: the NIST ThermoML archive (doi:10.1016/j.jct.2010.08.019)
Numbers after ± are expanded uncertainties.

Experiment: xn = mol fraction of the nth substance listed
Conditions: for surface tension liquid-gas: Wilhelmy-plate method; for viscosity / mass density: 101 kPa, Liquid; for viscosity: Falling or rolling sphere viscometry; for mass density: Vibrating tube method

C1CCOCC1 [tetrahydropyran] + CC(C)O
Conditions | mass density [kg/m3] | surface tension liquid-gas [mN/m] | viscosity [mPa·s]
293.15 K, x2 = 0 | 884.27 ± 0.23 | 27.5 ± 0.4 | 0.86 ± 0.011
293.15 K, x2 = 0.0501 | 879.89 ± 0.23 | 27.2 ± 0.4 | 0.852 ± 0.011
293.15 K, x2 = 0.0999 | 875.5 ± 0.22 | 26.9 ± 0.4 | 0.845 ± 0.011
293.15 K, x2 = 0.1499 | 871.09 ± 0.21 | 26.6 ± 0.4 | 0.849 ± 0.011
293.15 K, x2 = 0.2003 | 866.62 ± 0.21 | 26.3 ± 0.4 | 0.85 ± 0.011
293.15 K, x2 = 0.2506 | 862.13 ± 0.2 | 26 ± 0.4 | 0.855 ± 0.011
293.15 K, x2 = 0.2999 | 857.7 ± 0.2 | 25.7 ± 0.4 | 0.864 ± 0.011
293.15 K, x2 = 0.35 | 853.13 ± 0.19 | 25.4 ± 0.4 | 0.877 ± 0.011
293.15 K, x2 = 0.3999 | 848.52 ± 0.19 | 25 ± 0.4 | 0.899 ± 0.011
293.15 K, x2 = 0.4499 | 843.87 ± 0.18 | 24.7 ± 0.4 | 0.922 ± 0.011
293.15 K, x2 = 0.5001 | 839.07 ± 0.18 | 24.4 ± 0.4 | 0.947 ± 0.011
293.15 K, x2 = 0.5502 | 834.22 ± 0.17 | 24 ± 0.4 | 0.983 ± 0.011
293.15 K, x2 = 0.6001 | 829.28 ± 0.17 | 23.7 ± 0.4 | 1.032 ± 0.012
293.15 K, x2 = 0.6499 | 824.23 ± 0.17 | 23.4 ± 0.4 | 1.095 ± 0.012
293.15 K, x2 = 0.7001 | 819.03 ± 0.16 | 23.1 ± 0.4 | 1.164 ± 0.012
293.15 K, x2 = 0.7499 | 813.78 ± 0.16 | 22.7 ± 0.4 | 1.256 ± 0.013
293.15 K, x2 = 0.8 | 808.34 ± 0.16 | 22.4 ± 0.4 | 1.378 ± 0.014
293.15 K, x2 = 0.8501 | 802.8 ± 0.16 | 22.1 ± 0.4 | 1.535 ± 0.015
293.15 K, x2 = 0.9001 | 797.15 ± 0.15 | 21.9 ± 0.4 | 1.739 ± 0.016
293.15 K, x2 = 0.9499 | 791.36 ± 0.15 | 21.6 ± 0.4 | 2.013 ± 0.018
303.15 K, x2 = 0 | 874.07 ± 0.23 | 26.2 ± 0.4 | 0.749 ± 0.01
303.15 K, x2 = 0.0502 | 869.6 ± 0.23 | 26 ± 0.4 | 0.737 ± 0.01
303.15 K, x2 = 0.1001 | 865.24 ± 0.22 | 25.7 ± 0.4 | 0.729 ± 0.01
303.15 K, x2 = 0.1501 | 860.87 ± 0.22 | 25.4 ± 0.4 | 0.728 ± 0.01
303.15 K, x2 = 0.1998 | 856.52 ± 0.21 | 25.1 ± 0.4 | 0.725 ± 0.01
303.15 K, x2 = 0.2499 | 852.09 ± 0.2 | 24.8 ± 0.4 | 0.729 ± 0.01
303.15 K, x2 = 0.3 | 847.66 ± 0.2 | 24.5 ± 0.4 | 0.737 ± 0.01
303.15 K, x2 = 0.3499 | 843.17 ± 0.19 | 24.2 ± 0.4 | 0.75 ± 0.01
303.15 K, x2 = 0.4001 | 838.59 ± 0.19 | 23.9 ± 0.4 | 0.76 ± 0.01
303.15 K, x2 = 0.4501 | 833.98 ± 0.18 | 23.6 ± 0.4 | 0.779 ± 0.01
303.15 K, x2 = 0.5001 | 829.29 ± 0.18 | 23.3 ± 0.4 | 0.8 ± 0.01
303.15 K, x2 = 0.55 | 824.54 ± 0.18 | 22.9 ± 0.4 | 0.825 ± 0.01
303.15 K, x2 = 0.6 | 819.65 ± 0.17 | 22.6 ± 0.4 | 0.861 ± 0.011
303.15 K, x2 = 0.65 | 814.69 ± 0.17 | 22.3 ± 0.4 | 0.905 ± 0.011
303.15 K, x2 = 0.6999 | 809.62 ± 0.17 | 22 ± 0.4 | 0.958 ± 0.011
303.15 K, x2 = 0.7499 | 804.47 ± 0.16 | 21.7 ± 0.4 | 1.021 ± 0.011
303.15 K, x2 = 0.8001 | 799.17 ± 0.16 | 21.4 ± 0.4 | 1.108 ± 0.012
303.15 K, x2 = 0.85 | 793.77 ± 0.16 | 21.2 ± 0.4 | 1.214 ± 0.013
303.15 K, x2 = 0.8998 | 788.25 ± 0.16 | 20.9 ± 0.4 | 1.356 ± 0.014
303.15 K, x2 = 0.9499 | 782.59 ± 0.16 | 20.6 ± 0.4 | 1.533 ± 0.015
313.15 K, x2 = 0 | 863.76 ± 0.47 | 25.1 ± 0.4 | 0.658 ± 0.01
313.15 K, x2 = 0.05 | 859.32 ± 0.46 | 24.9 ± 0.4 | 0.645 ± 0.01
313.15 K, x2 = 0.1 | 854.97 ± 0.45 | 24.6 ± 0.4 | 0.639 ± 0.01
313.15 K, x2 = 0.1501 | 850.64 ± 0.44 | 24.3 ± 0.4 | 0.634 ± 0.01
313.15 K, x2 = 0.2 | 846.27 ± 0.42 | 24.1 ± 0.4 | 0.633 ± 0.01
313.15 K, x2 = 0.2499 | 841.92 ± 0.41 | 23.8 ± 0.4 | 0.635 ± 0.01
313.15 K, x2 = 0.2997 | 837.55 ± 0.39 | 23.5 ± 0.4 | 0.638 ± 0.01
313.15 K, x2 = 0.3499 | 833.09 ± 0.38 | 23.2 ± 0.4 | 0.646 ± 0.01
313.15 K, x2 = 0.4 | 828.58 ± 0.36 | 22.9 ± 0.4 | 0.656 ± 0.01
313.15 K, x2 = 0.4504 | 823.98 ± 0.34 | 22.6 ± 0.4 | 0.667 ± 0.01
313.15 K, x2 = 0.5001 | 819.37 ± 0.33 | 22.3 ± 0.4 | 0.682 ± 0.01
313.15 K, x2 = 0.55 | 814.68 ± 0.31 | 22 ± 0.4 | 0.704 ± 0.01
313.15 K, x2 = 0.5999 | 809.9 ± 0.29 | 21.7 ± 0.4 | 0.725 ± 0.01
313.15 K, x2 = 0.65 | 805.04 ± 0.28 | 21.4 ± 0.4 | 0.758 ± 0.01
313.15 K, x2 = 0.7001 | 800.07 ± 0.26 | 21.1 ± 0.4 | 0.796 ± 0.01
313.15 K, x2 = 0.7502 | 794.95 ± 0.24 | 20.8 ± 0.4 | 0.844 ± 0.011
313.15 K, x2 = 0.7999 | 789.8 ± 0.22 | 20.6 ± 0.4 | 0.901 ± 0.011
313.15 K, x2 = 0.85 | 784.49 ± 0.2 | 20.3 ± 0.4 | 0.976 ± 0.011
313.15 K, x2 = 0.8998 | 779.1 ± 0.18 | 20.1 ± 0.4 | 1.069 ± 0.012
313.15 K, x2 = 0.9498 | 773.58 ± 0.17 | 19.8 ± 0.4 | 1.187 ± 0.012
323.15 K, x2 = 0 | 666.8 ± 0.83 | 23.8 ± 0.4 | 0.565 ± 0.009
323.15 K, x2 = 0.05 | – | 23.5 ± 0.4 | 0.562 ± 0.009
323.15 K, x2 = 0.0501 | 667.65 ± 0.8 | – | –
323.15 K, x2 = 0.1 | 669.08 ± 0.78 | 23.3 ± 0.4 | 0.558 ± 0.009
323.15 K, x2 = 0.15 | 670.98 ± 0.76 | – | –
323.15 K, x2 = 0.1501 | – | 23.1 ± 0.4 | 0.553 ± 0.009
323.15 K, x2 = 0.1998 | 673.08 ± 0.73 | – | –
323.15 K, x2 = 0.2 | – | 22.8 ± 0.4 | 0.55 ± 0.009
323.15 K, x2 = 0.2499 | – | 22.6 ± 0.4 | 0.55 ± 0.009
323.15 K, x2 = 0.25 | 675.42 ± 0.7 | – | –
323.15 K, x2 = 0.2997 | – | 22.3 ± 0.4 | 0.553 ± 0.009
323.15 K, x2 = 0.3 | 677.99 ± 0.68 | – | –
323.15 K, x2 = 0.3499 | – | 22 ± 0.4 | 0.557 ± 0.009
323.15 K, x2 = 0.35 | 680.86 ± 0.65 | – | –
323.15 K, x2 = 0.4 | 683.93 ± 0.62 | 21.8 ± 0.4 | 0.563 ± 0.009
323.15 K, x2 = 0.4499 | 687.34 ± 0.58 | – | –
323.15 K, x2 = 0.4504 | – | 21.5 ± 0.4 | 0.571 ± 0.009
323.15 K, x2 = 0.5 | 691.07 ± 0.55 | – | –
323.15 K, x2 = 0.5001 | – | 21.2 ± 0.4 | 0.582 ± 0.009
323.15 K, x2 = 0.5501 | 695.17 ± 0.52 | 20.9 ± 0.4 | 0.596 ± 0.009
323.15 K, x2 = 0.6 | 699.74 ± 0.48 | 20.7 ± 0.4 | 0.615 ± 0.009
323.15 K, x2 = 0.65 | 704.78 ± 0.44 | 20.4 ± 0.4 | 0.635 ± 0.01
323.15 K, x2 = 0.6999 | – | 20.1 ± 0.4 | 0.661 ± 0.01
323.15 K, x2 = 0.7 | 710.22 ± 0.4 | – | –
323.15 K, x2 = 0.7499 | 716.22 ± 0.36 | – | –
323.15 K, x2 = 0.7502 | – | 19.9 ± 0.4 | 0.697 ± 0.01
323.15 K, x2 = 0.7999 | 722.88 ± 0.32 | – | –
323.15 K, x2 = 0.8002 | – | 19.6 ± 0.4 | 0.739 ± 0.01
323.15 K, x2 = 0.85 | 730.48 ± 0.28 | – | –
323.15 K, x2 = 0.8501 | – | 19.4 ± 0.4 | 0.79 ± 0.01
323.15 K, x2 = 0.8998 | – | 19.2 ± 0.4 | 0.85 ± 0.011
323.15 K, x2 = 0.9 | 738.82 ± 0.23 | – | –
323.15 K, x2 = 0.95 | 748.16 ± 0.19 | – | –
323.15 K, x2 = 0.9501 | – | 19 ± 0.4 | 0.927 ± 0.011
